Assay results: patent publication US20230250054A1, “SELECTIVE HISTONE DEACETYLASE 6 INHIBITORS” (The Board of Trustees of the University of Illinois, priority 2020, published 2023)

Legend:
HDAC6 = biological target: T1, HDAC6 (Homo sapiens, UniProt Q9UBN7); experiment: Fluorescence-based HDAC inhibition assay, HDAC6; type: biochemical; settings: for LE (ligand efficiency): 1.4 × pIC50/number of heavy atoms; for selectivity over Class IIa isoforms HDAC4, 5, 7, and 9: HDAC6 vs HDAC4, 5, 7 and 9; for LipE (lipophilic ligand efficiency): pIC50 − clog Po/w
T1 construct: our assay that uses approximately 0.6 nM concentration of the full-length enzyme; made in house; host or cells: HEK293/T17 cells, transient transfection
T1 sequence (Q9UBN7 1-1215): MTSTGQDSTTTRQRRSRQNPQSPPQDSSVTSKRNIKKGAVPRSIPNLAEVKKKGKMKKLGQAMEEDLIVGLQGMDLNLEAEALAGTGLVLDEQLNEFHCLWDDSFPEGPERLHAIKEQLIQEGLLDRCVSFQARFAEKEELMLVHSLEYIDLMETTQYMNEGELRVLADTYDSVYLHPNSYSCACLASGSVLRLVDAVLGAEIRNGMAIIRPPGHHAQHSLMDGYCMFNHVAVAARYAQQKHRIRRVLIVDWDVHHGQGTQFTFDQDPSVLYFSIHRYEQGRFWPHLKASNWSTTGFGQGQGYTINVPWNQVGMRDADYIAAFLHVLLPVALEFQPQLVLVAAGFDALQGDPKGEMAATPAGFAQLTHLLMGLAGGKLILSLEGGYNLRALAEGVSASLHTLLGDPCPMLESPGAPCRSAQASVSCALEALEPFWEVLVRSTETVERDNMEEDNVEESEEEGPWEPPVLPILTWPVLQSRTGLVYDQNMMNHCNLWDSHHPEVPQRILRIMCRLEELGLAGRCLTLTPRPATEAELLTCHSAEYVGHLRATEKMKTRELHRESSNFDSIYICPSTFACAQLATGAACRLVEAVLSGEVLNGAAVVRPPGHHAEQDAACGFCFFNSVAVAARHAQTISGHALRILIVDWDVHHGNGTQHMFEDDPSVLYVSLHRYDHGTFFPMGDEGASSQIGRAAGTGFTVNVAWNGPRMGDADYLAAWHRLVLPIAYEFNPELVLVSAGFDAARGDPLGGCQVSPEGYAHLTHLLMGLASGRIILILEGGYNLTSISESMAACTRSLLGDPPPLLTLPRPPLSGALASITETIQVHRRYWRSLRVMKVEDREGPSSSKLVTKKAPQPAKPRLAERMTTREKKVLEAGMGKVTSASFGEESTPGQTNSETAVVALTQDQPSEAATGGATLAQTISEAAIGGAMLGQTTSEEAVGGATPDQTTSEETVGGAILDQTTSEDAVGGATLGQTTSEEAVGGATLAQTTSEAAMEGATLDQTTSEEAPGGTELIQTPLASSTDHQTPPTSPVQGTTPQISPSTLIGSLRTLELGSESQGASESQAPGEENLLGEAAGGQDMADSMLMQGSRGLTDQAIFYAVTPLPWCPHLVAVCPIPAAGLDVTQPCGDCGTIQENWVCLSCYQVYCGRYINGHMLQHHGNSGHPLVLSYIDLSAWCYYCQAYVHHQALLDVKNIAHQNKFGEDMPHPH
Description: (§1) Briefly, transiently transfected cells were harvested three days post-transfection and the cell pellets resuspended in a lysis buffer (50 mM Tris, 150 mM NaCl, 10 mM KCl, 2 mM MgCl2, 10% glycerol, 0.2% NP-40, 2 Units/mL benzonase, pH 8) supplemented with a cocktail of protease inhibitors (Roche, Basel, Switzerland). Cells were lysed by sonication (30 W; 3×20 s) on ice, and the cell lysate cleared by centrifugation at 40 000×g for 30 min at 4° C. […] Purified proteins were concentrated to 1 mg/mL, aliquoted, flash-frozen in liquid nitrogen, and stored at −80° C. until further use.
(§2) Briefly, individual HDACs were preincubated with dilution series of tested inhibitors (0-100 μM) in a 384-well plate in the total volume of 40 μL for 10 min at 37° C. in a reaction buffer comprising 50 mM HEPES, 140 mM NaCl, 10 mM KCl, 1 mM TCEP, 0.1% BSA, pH 7.4. Deacetylation reaction was started by the addition of 10 μL of a 10 μM substrate into the HDAC/inhibitor mixture. Following the 30 min incubation at 37° C., the reaction was terminated by the addition of 25 μL of the trypsin solution (4 mg/mL). Fluorescence development by trypsin was carried out at 37° C. for 15 and 60 min for Ac-GAK(Ac)-AMC and Boc-Lys(TFA)-AMC substrate, respectively. […] Non-linear regression analysis was employed to calculate IC50 values using the GraphPad Prism software. […] Reactions without the enzyme or the inhibitor were used to define 0% and 100% of the HDAC activity, respectively.

HDAC8 = biological target: T2, HDAC8 (Homo sapiens, UniProt Q9BY41); experiment: Fluorescence-based HDAC inhibition assay, HDAC8; type: biochemical; settings: for IC50: 10 μM Boc-Lys(TFA)-AMC substrate, mean of two experiments ± SEM
T2 construct: made in house; host or cells: HEK293/T17 cells, transient transfection
T2 sequence (Q9BY41 1-377): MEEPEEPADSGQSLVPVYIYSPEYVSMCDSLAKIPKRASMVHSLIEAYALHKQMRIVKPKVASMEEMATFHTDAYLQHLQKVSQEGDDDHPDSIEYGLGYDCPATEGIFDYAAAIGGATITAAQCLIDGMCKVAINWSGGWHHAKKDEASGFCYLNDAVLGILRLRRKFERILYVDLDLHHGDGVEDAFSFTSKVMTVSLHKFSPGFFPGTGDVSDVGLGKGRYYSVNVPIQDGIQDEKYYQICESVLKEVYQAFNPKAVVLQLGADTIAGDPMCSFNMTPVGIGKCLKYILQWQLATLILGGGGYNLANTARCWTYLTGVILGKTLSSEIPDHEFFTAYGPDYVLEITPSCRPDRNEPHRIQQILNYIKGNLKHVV
Description: as §1, §2

HDAC3 = biological target: T3, HDAC3 (Homo sapiens, UniProt O15379); experiment: Fluorescence-based HDAC inhibition assay, HDAC3; type: biochemical; settings: for IC50: 10 μM Ac-GAK(Ac)-AMC substrate, mean of two experiments ± SEM
T3 construct: made in house; host or cells: HEK293/T17 cells, transient transfection
Description: as §1, §2

[1] = 10 μM Ac-GAK(Ac)-AMC substrate, mean of two experiments ± SEM

T3 sequence (O15379 whole entry): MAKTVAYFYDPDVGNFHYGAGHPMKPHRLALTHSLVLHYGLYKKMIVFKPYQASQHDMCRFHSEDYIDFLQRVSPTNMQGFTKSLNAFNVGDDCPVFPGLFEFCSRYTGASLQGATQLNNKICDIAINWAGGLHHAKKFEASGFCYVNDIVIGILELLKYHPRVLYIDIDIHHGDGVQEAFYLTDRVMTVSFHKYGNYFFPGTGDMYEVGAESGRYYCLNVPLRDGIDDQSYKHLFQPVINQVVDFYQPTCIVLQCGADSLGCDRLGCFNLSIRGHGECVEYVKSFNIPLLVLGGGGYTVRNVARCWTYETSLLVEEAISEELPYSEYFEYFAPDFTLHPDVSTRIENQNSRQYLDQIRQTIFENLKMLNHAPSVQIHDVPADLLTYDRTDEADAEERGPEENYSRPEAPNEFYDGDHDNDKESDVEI
T3 sequence (Q9Y618 389-480 partner limits assumed): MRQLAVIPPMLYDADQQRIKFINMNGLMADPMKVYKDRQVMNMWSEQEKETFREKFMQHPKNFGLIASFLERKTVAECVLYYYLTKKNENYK

| Compound | SI (HDAC6 selectivity index), HDAC6 (HDAC6) | IC50 (HDAC6; [1]) | LE (ligand efficiency) (HDAC6) | selectivity over Class IIa isoforms HDAC4, 5, 7, and 9 (HDAC6) | IC50 (HDAC6; Table 2) | LipE (lipophilic ligand efficiency) (HDAC6) | SI (HDAC6 selectivity index over HDAC8) (HDAC8) | IC50 (HDAC8) | Human plasma stability (t1/2, h) (Human plasma stability) | SI (HDAC6 selectivity index over HDAC3) (HDAC3) | IC50 (HDAC3) |
| --- | --- | --- | --- | --- | --- | --- | --- | --- | --- | --- | --- |
| NCc1ccc(NC(=O)N(CCCCO)Cc2ccc(C(=O)NO)cc2)cc1 [Compound 6a, 4-((3-(4-(Aminomethyl)phenyl)-1-(4-hydroxybutyl)ureido)methyl)-N-hydroxybenz-amide] | 1 | 0.4 nM | 0.47 | thousand-fold selectivity | 0.4 nM | 7.57 | 1,250 | 498 ± 58 nM | >5 h | 880 | 352 ± 2 nM |
| CCCCN(Cc1ccc(C(=O)NO)cc1)C(=O)Nc1ccc(CN)cc1 [Compound 6b, 4-((3-(4-(Aminomethyl)phenyl)-1-butylureido)methyl)-N-hydroxybenzamide] | 1 | 0.9 ± 0.7 nM | 0.47 | – | – | 6.59 | 682 | 614 ± 58 nM | >5 h | 492 | 443 ± 108 nM |
| O=C(NO)c1ccc(CN(CCCCO)C(=O)Nc2ccccc2)cc1 [Compound 6c, reference compound] | 1 | 0.5 nM | 0.50 | thousand-fold selectivity | – | 6.98 | 956 | 478 ± 97 nM | >5 h | – | 581 ± 18 nM |
